Legend:
in vivo [1] = assay: in vivo; design: species or system NMR-I mice; details: mouse, iv, 5.7 mg/kg
Procedure: Each treatment group was composed of 3 animals. […] The plasma samples were analyzed by the procedure of Mross et al., (J. Chromatograph. 530 (1990), 192-199). […] The columns were dried for 10 minutes at 10 mbar. […] The residue was taken up in 50 μl (0.02 mol/l Na phosphate/acetonitrile, pH 3.9; 7:3, v/v) and analyzed by means of HPLC using a 4.6 mm×25 cm Merck Lichrocart C 18 RP 5 μm column. The flow rate was 1.5 ml/min. The excitation wavelength was 480 nm and the emission wavelength was 580 nm.

in vivo [2] = details: mouse, iv, 5.7 mg/kg
Procedure: Female NMR-I mice (28-32 g, 6-8 weeks) were obtained from the Animal Breeding Institute, Hannover Germany. The same doses (5.7 mg/kg) were injected in each case into the cordal vein of the mice. Each treatment group was composed of 3 animals. After 1, 24 and 72 hours the mice were anaesthetized with CO2. Blood was collected from the mice by puncture of the heart and stored in heparinized Eppendorf vessels. Tissue samples from the mice (liver, heart etc.) were rinsed in 0.9% NaCl solution and stored at -70° C.
In order to detect doxorubicin and its metabolites in the individual organs, the tissue samples (about 200 mg in each case) were homogenized with a micro-dismembrator (Braun Melsungen AG, Germany). Doxorubicin and its metabolites were treated with an extraction solution at pH 3 (16.5% w/v AgNO3 in acetonitrile/water; 6:4, v/v), in order to release the anthracyclines from a complex with DNA and to precipitate the proteins. After addition of an internal standard (epirubicin) and centrifugation, the supernatant was applied directly to the HPLC column.

[3] = clinical use; cited from earlier work

COc1cccc2c1C(=O)c1c(O)c3c(c(O)c1C2=O)C[C@@](O)(C(=O)CO)C[C@@H]3O[C@H]1C[C@H](N)[C@H](O)[C@H](C)O1 [free doxorubicin, doxorubicin]
concentration at 1 h (in vivo [1]): 500 ng/mL | remaining at 1 h (in vivo [2]): 23% | cardiac toxicity [3]: high cardiac toxicity

From patent publication US5626867A, “Liposomes with a negative excess charge” (Max-Planck Gesellschaft zur Forderung der Wissenschaften …, priority 1992, dated 1997)
